The test deals with MV-4-11 cells. Nature of the test: Gene expression microarray analysis (Affymetrix PrimeView) and GSEA. As to conditions: MV-4-11 cells, 48 hours. It is filed as cell-based, human. Set-up: RFU PODN (11730768_x_at) / Fold change /veh PODN (11730768_x_at) / RFU LINC00158 (11744669_a_at) / Fold change /veh LINC00158 (11744669_a_at) / RFU DUSP10 (11751237_a_at) / Fold change /veh DUSP10 (11751237_a_at) / RFU ID3 (11757404_x_at) / Fold change /veh ID3 (11757404_x_at) / RFU PLEKHG5 (11737974_s_at) / Fold change /veh PLEKHG5 (11737974_s_at) / RFU LRRC4B (11730491_at) / Fold change /veh LRRC4B (11730491_at) / RFU GIMAP4 (11747438_a_at) / Fold change /veh GIMAP4 (11747438_a_at) / RFU KRT8 (11758183_x_at) / Fold change /veh KRT8 (11758183_x_at) / RFU CNN1 (11734310_a_at) / Fold change /veh CNN1 (11734310_a_at) / RFU VPS37D (11726825_at) / Fold change /veh VPS37D (11726825_at) / RFU C10orf10 (11716522_x_at) / Fold change /veh C10orf10 (11716522_x_at) / RFU KIR2DL2 /// KIR2DL4 /// KIR2DL5A /// KIR2DL5B /// KIR2DS1 /// KIR2DS2 /// KIR2DS3 /// KIR2DS4 /// KIR3DL3 /// KIR3DL3 /// KIR3DS1 (11738374_at) / Fold change /veh KIR2DL2 /// KIR2DL4 /// KIR2DL5A /// KIR2DL5B /// KIR2DS1 /// KIR2DS2 /// KIR2DS3 /// KIR2DS4 /// KIR3DL3 /// KIR3DL3 /// KIR3DS1 (11738374_at) / RFU C1QL1 (11718748_at) / Fold change /veh C1QL1 (11718748_at) / RFU TMPRSS4 (11747572_a_at) / Fold change /veh TMPRSS4 (11747572_a_at) / RFU HAMP (11756126_x_at) / Fold change /veh HAMP (11756126_x_at) / RFU RNFT2 (11725882_a_at) / Fold change /veh RNFT2 (11725882_a_at) / RFU NR4A2 (11747474_a_at) / Fold change /veh NR4A2 (11747474_a_at) / RFU ABCC12 (11746883_a_at) / Fold change /veh ABCC12 (11746883_a_at) / RFU TMEM136 (11760407_x_at) / Fold change /veh TMEM136 (11760407_x_at) / RFU CLDN22 /// WWC2 (11732394_at) / Fold change /veh CLDN22 /// WWC2 (11732394_at) / RFU HLA-DPB1 (11760878_x_at) / Fold change /veh HLA-DPB1 (11760878_x_at) / RFU SPINT1 (11716480_a_at) / Fold change /veh SPINT1 (11716480_a_at) / RFU GAP43 (11754022_s_at) / Fold change /veh GAP43 (11754022_s_at) / RFU A4GNT (11735810_at) / Fold change /veh A4GNT (11735810_at) / RFU PRB3 (11715151_x_at) / Fold change /veh PRB3 (11715151_x_at) / RFU TUBB4B (11761932_at) / Fold change /veh TUBB4B (11761932_at) / RFU CAPN14 (11732068_a_at) / Fold change /veh CAPN14 (11732068_a_at) / RFU TMCC2 (11721928_a_at) / Fold change /veh TMCC2 (11721928_a_at) / RFU IRGQ (11745062_a_at) / Fold change /veh IRGQ (11745062_a_at) / RFU FAM174B (11720279_a_at) / Fold change /veh FAM174B (11720279_a_at) / RFU TMPRSS4 (11748680_a_at) / Fold change /veh TMPRSS4 (11748680_a_at) / RFU FAM212B (11763350_a_at) / Fold change /veh FAM212B (11763350_a_at) / RFU PLEKHG5 (11743358_a_at) / Fold change /veh PLEKHG5 (11743358_a_at) / RFU ZSCAN30 (11745921_a_at) / Fold change /veh ZSCAN30 (11745921_a_at) / RFU CMKLR1 (11741424_a_at) / Fold change /veh CMKLR1 (11741424_a_at) / RFU LOC101060620 /// MAPK8IP1 (11723275_at) / Fold change /veh LOC101060620 /// MAPK8IP1 (11723275_at) / RFU SPTSSB (11747773_x_at) / Fold change /veh SPTSSB (11747773_x_at) / RFU PRSS12 (11739890_at) / Fold change /veh PRSS12 (11739890_at) / RFU BIN1 (11741810_x_at) / Fold change /veh BIN1 (11741810_x_at) / RFU WNT11 (11732464_a_at) / Fold change /veh WNT11 (11732464_a_at) / RFU C10orf10 (11716521_a_at) / Fold change /veh C10orf10 (11716521_a_at) / RFU C5orf56 (11738089_at) / Fold change /veh C5orf56 (11738089_at) / RFU CYB561 (11721691_x_at) / Fold change /veh CYB561 (11721691_x_at) / RFU ANKRD19P (11752326_a_at) / Fold change /veh ANKRD19P (11752326_a_at) / RFU OR2T12 /// OR2T33 /// OR2T8 (11738714_s_at) / Fold change /veh OR2T12 /// OR2T33 /// OR2T8 (11738714_s_at) / RFU VCAN (11748164_a_at) / Fold change /veh VCAN (11748164_a_at) / RFU JSRP1 (11732532_at) / Fold change /veh JSRP1 (11732532_at) / RFU KRTAP10-11 (11738290_x_at) / Fold change /veh KRTAP10-11 (11738290_x_at) / RFU MYO3A (11730013_a_at) / Fold change /veh MYO3A (11730013_a_at) / RFU EBF3 (11725865_a_at) / Fold change /veh EBF3 (11725865_a_at) / RFU CAMK2N1 (11719241_x_at) / Fold change /veh CAMK2N1 (11719241_x_at) / RFU C5orf56 (11738088_a_at) / Fold change /veh C5orf56 (11738088_a_at) / RFU OLFML3 (11715873_a_at) / Fold change /veh OLFML3 (11715873_a_at) / RFU LOC100653217 /// NTM (11731650_a_at) / Fold change /veh LOC100653217 /// NTM (11731650_a_at) / RFU MAPK11 (11762145_a_at) / Fold change /veh MAPK11 (11762145_a_at) / RFU FIZ1 (11724087_x_at) / Fold change /veh FIZ1 (11724087_x_at) / RFU OASL (11726364_x_at) / Fold change /veh OASL (11726364_x_at) / RFU SOX15 (11748057_x_at) / Fold change /veh SOX15 (11748057_x_at) / RFU CD79A (11719716_a_at) / Fold change /veh CD79A (11719716_a_at) / RFU HIST1H1D (11736915_at) / Fold change /veh HIST1H1D (11736915_at) / RFU CASKIN2 (11723855_a_at) / Fold change /veh CASKIN2 (11723855_a_at) / RFU LOC730098 (11760151_x_at) / Fold change /veh LOC730098 (11760151_x_at) / RFU OR4N2 (11742367_at) / Fold change /veh OR4N2 (11742367_at) / RFU PRRT2 (11749266_a_at) / Fold change /veh PRRT2 (11749266_a_at) / RFU SNX32 (11753110_a_at) / Fold change /veh SNX32 (11753110_a_at) / RFU CDHR5 (11726645_a_at) / Fold change /veh CDHR5 (11726645_a_at) / RFU RCAN1 (11760418_a_at) / Fold change /veh RCAN1 (11760418_a_at) / RFU FAM167A (11723789_a_at) / Fold change /veh FAM167A (11723789_a_at) / RFU FAM26E (11764081_at) / Fold change /veh FAM26E (11764081_at) / RFU ISYNA1 (11749810_s_at) / Fold change /veh ISYNA1 (11749810_s_at) / RFU ACY1 (11761880_at) / Fold change /veh ACY1 (11761880_at) / RFU 11764098_at / Fold change /veh 11764098_at / RFU SAMD14 (11745864_x_at) / Fold change /veh SAMD14 (11745864_x_at) / RFU NPB (11741838_a_at) / Fold change /veh NPB (11741838_a_at) / RFU TMPRSS6 (11731388_a_at) / Fold change /veh TMPRSS6 (11731388_a_at) / RFU KRTAP10-2 (11738614_at) / Fold change /veh KRTAP10-2 (11738614_at) / RFU ARHGAP8 /// PRR5-ARHGAP8 (11727945_x_at) / Fold change /veh ARHGAP8 /// PRR5-ARHGAP8 (11727945_x_at) / RFU KRTAP5-7 /// NADSYN1 (11734609_at) / Fold change /veh KRTAP5-7 /// NADSYN1 (11734609_at) / RFU RASL12 (11751679_a_at) / Fold change /veh RASL12 (11751679_a_at) / RFU CDKN2B (11736163_a_at) / Fold change /veh CDKN2B (11736163_a_at) / RFU PRF1 (11729649_at) / Fold change /veh PRF1 (11729649_at) / RFU, ZNF638 /// ZNF638-IT1 / Fold change vs veh, ZNF638 /// ZNF638-IT1 / RFU, PANK3 / Fold change vs veh, PANK3 / RFU, SH3YL1 / Fold change vs veh, SH3YL1 / RFU, ZEB2 / Fold change vs veh, ZEB2 / RFU, NRIP1 / Fold change vs veh, NRIP1 / RFU, PTTG1IP / Fold change vs veh, PTTG1IP / RFU, CAPN2 / Fold change vs veh, CAPN2 / RFU, MED14 / Fold change vs veh, MED14 / RFU, SNORA58 / Fold change vs veh, SNORA58 / RFU, C1orf63 / Fold change vs veh, C1orf63 / RFU, LRRFIP1 / Fold change vs veh, LRRFIP1 / RFU, NDUFAF7 / Fold change vs veh, NDUFAF7 / RFU, SLC12A2 / Fold change vs veh, SLC12A2 / RFU, IBTK / Fold change vs veh, IBTK / RFU, ESF1 / Fold change vs veh, ESF1 / Fold change vs veh, TMEM50B / RFU, TAOK1 / Fold change vs veh, TAOK1 / RFU, ACBD3 / Fold change vs veh, ACBD3 / RFU, TMA16 / Fold change vs veh, TMA16 / RFU, RWDD3 / Fold change vs veh, RWDD3 / RFU, BCAT1 / Fold change vs veh, BCAT1 / RFU, EDEM3 / Fold change vs veh, EDEM3 / RFU, TMEM33 / Fold change vs veh, TMEM33 / RFU, WDR75 / Fold change vs veh, WDR75 / RFU, AHCTF1 / Fold change vs veh, AHCTF1 / RFU, TFRC / Fold change vs veh, TFRC / RFU, ZDHHC17 / Fold change vs veh, ZDHHC17 / RFU, NOM1 / Fold change vs veh, NOM1 / RFU, ARL8B / Fold change vs veh, ARL8B / RFU, ZBTB11 / Fold change vs veh, ZBTB11 / RFU, TAMM41 / Fold change vs veh, TAMM41 / RFU, KIAA1704 /// LOC100996395 / Fold change vs veh, KIAA1704 /// LOC100996395 / RFU, ING1 / Fold change vs veh, ING1 / RFU, TRMT61B / Fold change vs veh, TRMT61B / RFU, FUBP3 / Fold change vs veh, FUBP3 / RFU, TP53 / Fold change vs veh, TP53 / RFU, TNKS2 / Fold change vs veh, TNKS2 / RFU, ZFP14 / Fold change vs veh, ZFP14 / RFU, ACTR2 / Fold change vs veh, ACTR2 / RFU, PPP3R1 / Fold change vs veh, PPP3R1 / RFU, PIK3R1 / Fold change vs veh, PIK3R1 / RFU, HNRNPA1 / Fold change vs veh, HNRNPA1 / RFU, RNF170 / Fold change vs veh, RNF170 / RFU, ZNF28 / Fold change vs veh, ZNF28 / RFU, RNGTT / Fold change vs veh, RNGTT / RFU, OGT / Fold change vs veh, OGT / RFU, BRD1 / Fold change vs veh, BRD1 / RFU, MARS / Fold change vs veh, MARS / RFU, ZNF655 / Fold change vs veh, ZNF655 / RFU, FAHD1 / Fold change vs veh, FAHD1 / RFU, BDP1 / Fold change vs veh, BDP1 / RFU, LRRCC1 / Fold change vs veh, LRRCC1 / RFU, ARID1A / Fold change vs veh, ARID1A / RFU, ZNF146 / Fold change vs veh, ZNF146 / RFU, ZNF330 / Fold change vs veh, ZNF330 / RFU, GPN3 / Fold change vs veh, GPN3 / RFU, C9orf123 / Fold change vs veh, C9orf123 / RFU, N4BP2L2 / Fold change vs veh, N4BP2L2 / RFU, ARFIP1 / Fold change vs veh, ARFIP1 / RFU, FAM179B / Fold change vs veh, FAM179B / RFU, BCL10 / Fold change vs veh, BCL10 / RFU, UHRF1BP1L / Fold change vs veh, UHRF1BP1L / RFU, BET1 / Fold change vs veh, BET1 / RFU, CNOT2 / Fold change vs veh, CNOT2 / RFU, ZNF268 / Fold change vs veh, ZNF268 / Fold change vs veh, ZNF507 / RFU, DGCR2 / Fold change vs veh, DGCR2 / RFU, WDSUB1 / Fold change vs veh, WDSUB1 / Fold change vs veh, HSP90B1 /// MIR3652 / RFU, ADSS / Fold change vs veh, ADSS / RFU, GK / Fold change vs veh, GK / RFU, ZNF148 / Fold change vs veh, ZNF148 / RFU, TAF9 / Fold change vs veh, TAF9 / RFU, SLC1A5 / Fold change vs veh, SLC1A5 / RFU, SLMO2 / Fold change vs veh, SLMO2 / RFU, ABCC4 / Fold change vs veh, ABCC4 / RFU, LOC101060439 /// RAP1B / Fold change vs veh, LOC101060439 /// RAP1B / RFU, RFX7 / Fold change vs veh, RFX7 / RFU, GTPBP10 / Fold change vs veh, GTPBP10 / RFU, CNEP1R1 / Fold change vs veh, CNEP1R1 / RFU, BIVM-ERCC5 /// ERCC5 / Fold change vs veh, BIVM-ERCC5 /// ERCC5 / RFU, ILF3 / Fold change vs veh, ILF3 / RFU 11762660_at / Fold change /veh 11762660_at / RFU VCAN (11757783_s_at) / Fold change /veh VCAN (11757783_s_at) / RFU DDX43 (11728927_at) / Fold change /veh DDX43 (11728927_at) / RFU KRT8 (11758188_x_at) / Fold change /veh KRT8 (11758188_x_at) / RFU NKD1 (11759106_at) / Fold change /veh NKD1 (11759106_at) / RFU SRD5A1 (11742802_a_at) / Fold change /veh SRD5A1 (11742802_a_at) / RFU TPSAB1 /// TPSB2 (11721975_s_at) / Fold change /veh TPSAB1 /// TPSB2 (11721975_s_at) / RFU GSTM3 (11746129_a_at) / Fold change /veh GSTM3 (11746129_a_at) / RFU IL23R (11737362_x_at) / Fold change /veh IL23R (11737362_x_at) / RFU TMEM51 (11727254_a_at) / Fold change /veh TMEM51 (11727254_a_at) / RFU PIWIL2 (11732686_x_at) / Fold change /veh PIWIL2 (11732686_x_at) / RFU ORM1 (11744905_x_at) / Fold change /veh ORM1 (11744905_x_at) / RFU CCDC152 (11743942_at) / Fold change /veh CCDC152 (11743942_at) / RFU ECM1 (11717891_a_at) / Fold change /veh ECM1 (11717891_a_at) / RFU IL23R (11748794_a_at) / Fold change /veh IL23R (11748794_a_at) / RFU TNFAIP8L3 (11732012_x_at) / Fold change /veh TNFAIP8L3 (11732012_x_at) / RFU MBOAT4 (11741988_at) / Fold change /veh MBOAT4 (11741988_at) / RFU 11764193_at / Fold change /veh 11764193_at / RFU TMEM53 (11763286_at) / Fold change /veh TMEM53 (11763286_at) / RFU MAGEB2 (11727129_at) / Fold change /veh MAGEB2 (11727129_at) / RFU TMEM200A (11744735_a_at) / Fold change /veh TMEM200A (11744735_a_at) / RFU CCDC152 (11751479_a_at) / Fold change /veh CCDC152 (11751479_a_at) / RFU FAM211A (11726209_a_at) / Fold change /veh FAM211A (11726209_a_at) / RFU RGS16 (11746705_a_at) / Fold change /veh RGS16 (11746705_a_at) / RFU VCAN (11755009_s_at) / Fold change /veh VCAN (11755009_s_at) / RFU RHOB (11743442_s_at) / Fold change /veh RHOB (11743442_s_at) / RFU RGS16 (11720943_a_at) / Fold change /veh RGS16 (11720943_a_at) / RFU RGS16 (11720944_at) / Fold change /veh RGS16 (11720944_at) / RFU, VPS4B / Fold change vs veh, VPS4B / RFU, CREB1 / Fold change vs veh, CREB1 / RFU, DNAJC13 / Fold change vs veh, DNAJC13 / RFU, GNAQ / Fold change vs veh, GNAQ / RFU, CDK5R1 / Fold change vs veh, CDK5R1 / RFU, ZRANB3 / Fold change vs veh, ZRANB3 / RFU, CUL4A / Fold change vs veh, CUL4A / RFU, CCNY / Fold change vs veh, CCNY / RFU, UFL1 / Fold change vs veh, UFL1 / RFU, COG3 / Fold change vs veh, COG3 / RFU, DIAPH2 / Fold change vs veh, DIAPH2 / RFU, SKA2 / Fold change vs veh, SKA2 / RFU, AFF3 / Fold change vs veh, AFF3 / RFU, LMF1 / Fold change vs veh, LMF1 / RFU, IPO11 / Fold change vs veh, IPO11 / RFU, DFFB / Fold change vs veh, DFFB / RFU, FOXP1 / Fold change vs veh, FOXP1 / RFU, CARD8 / Fold change vs veh, CARD8 / RFU, STRN3 / Fold change vs veh, STRN3 / RFU, ADK / Fold change vs veh, ADK / RFU, RASSF2 / Fold change vs veh, RASSF2 / RFU, WIPF1 / Fold change vs veh, WIPF1 / RFU, LARP1B / Fold change vs veh, LARP1B / RFU, RASA1 / Fold change vs veh, RASA1 / RFU, RB1 / Fold change vs veh, RB1 / RFU, PPFIA1 / Fold change vs veh, PPFIA1 / RFU, MAT2A / Fold change vs veh, MAT2A / RFU, CCT5 / Fold change vs veh, CCT5 / RFU, WDR92 / Fold change vs veh, WDR92 / RFU, CUX1 / Fold change vs veh, CUX1 / RFU, TTC7A / Fold change vs veh, TTC7A / RFU, TMEM135 / Fold change vs veh, TMEM135 / RFU, DEPTOR / Fold change vs veh, DEPTOR / RFU, CPM / Fold change vs veh, CPM / RFU, DNAJB6 / Fold change vs veh, DNAJB6 / RFU, CACNA2D3 / Fold change vs veh, CACNA2D3 / RFU, DTX4 / Fold change vs veh, DTX4 / RFU, TFCP2 / Fold change vs veh, TFCP2 / RFU, GMCL1 /// GMCL1P1 / Fold change vs veh, GMCL1 /// GMCL1P1 / RFU, AEBP2 / Fold change vs veh, AEBP2 / RFU, SNHG1 /// SNORD22 /// SNORD25 /// SNORD26 /// SNORD27 /// SNORD28 /// SNORD29 /// SNORD31 / Fold change vs veh, SNHG1 /// SNORD22 /// SNORD25 /// SNORD26 /// SNORD27 /// SNORD28 /// SNORD29 /// SNORD31 / Fold change (Aza/veh), C12orf56 (ProbeSet 11735607_a_at) / Fold change (ACY-1035/veh), C12orf56 (ProbeSet 11735607_a_at) / Fold change (Aza/veh), FGFR1OP (ProbeSet 11751329_s_at) / Fold change (ACY-1035/veh), FGFR1OP (ProbeSet 11751329_s_at) / Fold change (Aza/veh), VPS36 (ProbeSet 11739960_a_at) / Fold change (ACY-1035/veh), VPS36 (ProbeSet 11739960_a_at) / RFU SYPL1 (11715823_x_at) / Fold change /veh SYPL1 (11715823_x_at) / RFU IGFBP7 (11715501_s_at) / Fold change /veh IGFBP7 (11715501_s_at) / RFU REEP3 (11722064_at) / Fold change /veh REEP3 (11722064_at) / RFU IGLL1 (11728026_x_at) / Fold change /veh IGLL1 (11728026_x_at): dose or concentration left out as unconfirmed.

Consider `Nc1ccc(-c2cccs2)cc1NC(=O)c1ccc2c(c1)cc(C1CC1)n2CCN1CCOCC1` [ACY-1035], for which the “RFU FAM167A (11723789_a_at)” value is given as 37.08 RFU.

The record behind these values is paper PMC5218480 (PLoS ONE, 2017).
